Consider 34 molecules from patent US12545659B2, “IRAK degraders and uses thereof” (Kymera Therapeutics, Inc., priority 2019, dated 2026).

One test deals with T1, IRAK4 (Homo sapiens, UniProt Q9NWZ3).
T1 construct: endogenous in cells; host or cells: OCI-LY10
T1 sequence (Q9NWZ3 1-460): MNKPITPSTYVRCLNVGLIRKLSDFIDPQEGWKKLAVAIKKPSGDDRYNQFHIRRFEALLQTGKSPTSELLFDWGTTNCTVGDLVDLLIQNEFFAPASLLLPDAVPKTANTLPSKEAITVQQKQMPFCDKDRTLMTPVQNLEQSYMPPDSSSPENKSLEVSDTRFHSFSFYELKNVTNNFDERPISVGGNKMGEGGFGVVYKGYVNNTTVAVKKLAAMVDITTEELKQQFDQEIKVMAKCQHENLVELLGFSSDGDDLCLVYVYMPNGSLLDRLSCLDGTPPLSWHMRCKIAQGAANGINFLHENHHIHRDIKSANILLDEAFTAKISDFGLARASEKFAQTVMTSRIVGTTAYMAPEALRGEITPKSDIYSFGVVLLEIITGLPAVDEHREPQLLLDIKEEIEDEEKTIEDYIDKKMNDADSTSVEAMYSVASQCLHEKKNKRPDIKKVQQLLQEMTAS
The experiment in a line: IRAK4 MSD Degradation in OCI-LY10. The format is cell-based. The settings on record: OCI-LY10 cells, 4 hrs incubation, read-out: IRAK4 degradation in OCI-LY10 at 4 hrs: DC50. The essentials: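 OCI-LY10 cells treated with 8-dose, 1:3 dilution series (top final 1 to 10 μM) for 4 to 24 h at 37 °C, 5% CO2. Lysate IRAK4 quantified by MSD sandwich immunoassay (mouse 2H9 capture, rabbit Y279 detection, SULFO-TAG anti-rabbit); DC50 from three-parameter logistic fit.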
Usually DC50 stands for the concentration giving 50% degradation. In the case of `Cn1c(=O)n(C2CCC(=O)NC2=O)c2cccc(OCC3CCN(C[C@H]4CC[C@H](n5cc6cc(NC(=O)c7cccc(C(F)(F)F)n7)c(C(C)(C)O)cc6n5)CC4)CC3)c21` (stereo partly shown) [I-132], the DC50 was less than 50 nM. Still for that read-out and setting: next, `COc1cc2nn([C@H]3CC[C@H](CN4[C@@H]5CC[C@H]4CN(CCc4cccc6c4n(C)c(=O)n6C4CCC(=O)NC4=O)C5)CC3)cc2cc1NC(=O)c1cccc(C(F)(F)F)n1` (stereo partly shown) [I-133]: less than 50 nM.

In the case of `COc1cc2nn([C@H]3CC[C@H](CN(C)CC#Cc4cccc5c4n(C)c(=O)n5C4CCC(=O)NC4=O)CC3)cc2cc1NC(=O)c1cccc(C(F)(F)F)n1` (stereo partly shown) [I-134], the DC50 fell in the range of 50 to 100 nM.

As for `Cn1c(=O)n(C2CCC(=O)NC2=O)c2cccc(CCCC3CCN(C[C@H]4CC[C@H](n5cc6cc(NC(=O)c7cccc(C(F)(F)F)n7)c(N7CCOCC7)cc6n5)CC4)CC3)c21` (stereo partly shown) [I-135], the DC50 lay in the range of 50 to 100 nM.

Regarding `COc1cc2nn([C@H]3CC[C@H](CN4CCC(CCNc5cccc6c5n(C)c(=O)n6C5CCC(=O)NC5=O)CC4)CC3)cc2cc1NC(=O)c1ccc(F)c(C)n1` (stereo partly shown) [I-144], the DC50 was less than 50 nM. The same measure, in the same setting: next, `COc1cc2nn([C@H]3CC[C@H](CN4CCC(CCCc5ccc6c(c5)n(C)c(=O)n6C5CCC(=O)NC5=O)CC4)CC3)cc2cc1NC(=O)c1cccc(C(F)(F)F)n1` (stereo partly shown) [I-145]: 50 to 100 nM; `Cn1c(=O)n(C2CCC(=O)NC2=O)c2cccc(CCN3CCN(C[C@H]4CC[C@H](n5cc6cc(NC(=O)c7cccc(C(F)(F)F)n7)c(C(C)(C)O)cc6n5)CC4)CC3)c21` (stereo partly shown) [I-146]: less than 50 nM; `Cn1c(=O)n(C2CCC(=O)NC2=O)c2cccc(NC[C@H]3CC[C@H](n4cc5cc(NC(=O)c6cccc(C(F)(F)F)n6)c(C(C)(C)O)cc5n4)CC3)c21` (stereo partly shown) [I-147, N-[2-[4-[[[1-(2,6-dioxo-3-piperidyl)-3-methyl-2-oxo-benzimidazol-4-yl]amino]methyl]cyclohexyl]-6-(1-hydroxy-1-methyl-ethyl)indazol-5-yl]-6-(trifluoromethyl)pyridine-2-carboxamide]: 500 to 1000 nM. Same read-out and setting: next, `CN(CC#Cc1ccc2c(c1)n(C)c(=O)n2C1CCC(=O)NC1=O)C[C@H]1CC[C@H](n2cc3cc(NC(=O)c4cccc(C(F)(F)F)n4)c(C(F)F)cc3n2)CC1` (stereo partly shown) [I-148]: 500 to 1000 nM. In the case of `Cn1c(=O)n(C2CCC(=O)NC2=O)c2ccc(N3CCN(C[C@H]4CC[C@H](n5cc6cc(NC(=O)c7cccc(C(F)(F)F)n7)c(C(F)F)cc6n5)CC4)CC3)cc21` (stereo partly shown) [I-149], the DC50 was less than 50 nM. Still for that read-out and setting: next, `COc1cc2nn([C@H]3CC[C@H](CNc4cccc5c4n(C)c(=O)n5C4CCC(=O)NC4=O)CC3)cc2cc1NC(=O)c1cccc(C(F)(F)F)n1` (stereo partly shown) [I-150]: 500 to 1000 nM. On the same count and under the same terms, next, `Cn1c(=O)n(C2CCC(=O)NC2=O)c2cccc(C[C@H]3C[C@]4(CC[C@@H](N(C)C[C@H]5CC[C@H](n6cc7cc(NC(=O)c8cccc(C(F)(F)F)n8)c(C(F)F)cc7n6)CC5)CC4)C3)c21` (stereo partly shown) [I-151]: 50 to 100 nM. Take `COc1cc2nn([C@H]3CC[C@H](CN(C)[C@H]4CC[C@@]5(CC4)C[C@@H](Cc4cccc6c4n(C)c(=O)n6C4CCC(=O)NC4=O)C5)CC3)cc2cc1NC(=O)c1cccc(C(F)(F)F)n1` (stereo partly shown) [I-152]: the DC50 fell in the range of 50 to 100 nM. In the case of `Cn1c(=O)n(C2CCC(=O)NC2=O)c2cccc(NC3CC4(CCN(C[C@H]5CC[C@H](n6cc7cc(NC(=O)c8cccc(C(F)(F)F)n8)c(C(C)(C)O)cc7n6)CC5)CC4)C3)c21` (stereo partly shown) [I-153], the DC50 was less than 50 nM. The same measure, in the same setting: next, `Cn1c(=O)n(C2CCC(=O)NC2=O)c2cccc(CCCC3CCN(C[C@H]4CC[C@H](n5cc6cc(NC(=O)c7cccc(C(F)(F)F)n7)c(N7C[C@@H]8C[C@H]7CO8)cc6n5)CC4)CC3)c21` (stereo partly shown) [I-154]: 50 to 100 nM; `Cn1c(=O)n(C2CCC(=O)NC2=O)c2cccc(C[C@H]3C[C@@]4(CC[C@@H](N(C)C[C@H]5CC[C@H](n6cc7cc(NC(=O)c8cccc(C(F)(F)F)n8)c(C(F)F)cc7n6)CC5)CC4)C3)c21` (stereo partly shown) [I-155]: less than 50 nM; `COc1cc2nn([C@H]3CC[C@H](CN4CCN(c5ccc6c(c5)n(C)c(=O)n6C5CCC(=O)NC5=O)CC4)CC3)cc2cc1NC(=O)c1cccc(C(C)(C)F)n1` (stereo partly shown) [I-156]: 50 to 100 nM. For `Cn1c(=O)n(C2CCC(=O)NC2=O)c2ccc(N3CCN(C[C@H]4CC[C@H](n5cc6cc(NC(=O)c7cccc(C(C)(C)F)n7)c(C(F)F)cc6n5)CC4)CC3)cc21` (stereo partly shown) [I-157], the DC50 was 50 to 100 nM. The same measure, in the same setting: next, `COc1cc2nn([C@H]3CC[C@H](CN4CCC(CCCc5cccc6c5n(C)c(=O)n6C5CCC(=O)NC5=O)CC4)CC3)cc2cc1NC(=O)c1cnn2cccnc12` (stereo partly shown) [I-158]: less than 50 nM; `COc1cc2nn([C@H]3CC[C@H](CN(C)[C@H]4CC[C@]5(CC4)C[C@@H](Cc4cccc6c4n(C)c(=O)n6C4CCC(=O)NC4=O)C5)CC3)cc2cc1NC(=O)c1cccc(C(F)(F)F)n1` (stereo partly shown) [I-160]: 50 to 100 nM; `COc1cc2nn([C@H]3CC[C@H](CN4CCC5(CC4)CC(Nc4cccc6c4n(C)c(=O)n6C4CCC(=O)NC4=O)C5)CC3)cc2cc1NC(=O)c1cccc(C(F)(F)F)n1` (stereo partly shown) [I-162]: less than 50 nM.

Staying with this test, now noted: OCI-LY10 cells, 24 hrs incubation, read-out: IRAK4 degradation in OCI-LY10 at 24 hrs: DC50.
Consider `CC1(C)OC(c2cccc(C(F)(F)F)n2)=Nc2cc3cn([C@H]4CC[C@H](CN5CCC6(CC5)CC(Nc5cccc7c5C(=O)N(C5CCC(=O)NC5=O)C7=O)C6)CC4)nc3cc21` (stereo partly shown) [I-127, 4-[[7-[[4-[8,8-Dimethyl-6-[6-(trifluoromethyl)-2-pyridyl]pyrazolo[3,4-g][3,1]benzoxazin-2-yl]cyclohexyl]methyl]-7-azaspiro[3.5]nonan-2-yl]amino]-2-(2,6-dioxo-3-piperidyl)isoindoline-1,3-dione], for which the DC50 fell in the range of 50 to 100 nM. With `COc1cc2nn([C@H]3CC[C@H](CN4CCC5(CC4)CC(CNc4cccc6c4C(=O)N([C@@H]4CCC(=O)NC4=O)C6=O)C5)CC3)cc2cc1NC(=O)c1cccc(C(F)(F)F)n1` [I-130, N-[2-[4-[[2-[[[2-[(3R)-2,6-dioxo-3-piperidyl]-1,3-dioxo-isoindolin-4-yl]amino]methyl]-7-azaspiro[3.5]nonan-7-yl]methyl]cyclohexyl]-6-methoxy-indazol-5-yl]-6-(trifluoromethyl)pyridine-2-carboxamide], the DC50 was in the range of 50 to 100 nM. `COc1cc2nn([C@H]3CC[C@H](CN4CCC5(CC4)CC(CNc4cccc6c4C(=O)N([C@H]4CCC(=O)NC4=O)C6=O)C5)CC3)cc2cc1NC(=O)c1cccc(C(F)(F)F)n1` [I-131, N-[2-[4-[[2-[[[2-[(3S)-2,6-dioxo-3-piperidyl]-1,3-dioxo-isoindolin-4-yl]amino]methyl]-7-azaspiro[3.5]nonan-7-yl]methyl]cyclohexyl]-6-methoxy-indazol-5-yl]-6-(trifluoromethyl)pyridine-2-carboxamide]: the DC50 was 50 to 100 nM.

For the molecule `COc1cc2nn([C@H]3CC[C@H](CN4CCC5(CC4)CC(CCNc4cccc6c4C(=O)N(C4CCC(=O)NC4=O)C6=O)C5)CC3)c(C)c2cc1NC(=O)c1cccc(C(F)(F)F)n1` (stereo partly shown) [I-136], the DC50 lay within 50 to 100 nM.

On to `COc1cc2nc([C@H]3CC[C@H](CN4CCC5(CC4)CC(CCNc4cccc6c4C(=O)N(C4CCC(=O)NC4=O)C6=O)C5)CC3)oc2cc1NC(=O)c1cccc(C(F)(F)F)n1` (stereo partly shown) [I-137], for which the DC50 is 100 to 500 nM.

As for `CC(C)(O)COc1cc2nn([C@H]3CC[C@H](CN4CCC5(CC4)CC(CNc4cccc6c4C(=O)N(C4CCC(=O)NC4=O)C6=O)C5)CC3)cc2cc1NC(=O)c1cccc(C(F)(F)F)n1` (stereo partly shown) [I-138], the DC50 is 50 to 100 nM. Turning to `COc1cc2nn([C@H]3CC[C@H](CN4CCC5(CC4)CC(CCNc4cccc6c4C(=O)N(C4CCC(=O)NC4=O)C6=O)C5)CC3)cc2cc1NC(=O)c1cnn2cccnc12` (stereo partly shown) [I-139], the DC50 was less than 50 nM.

Take `COc1cc2nn([C@H]3CC[C@H](CN4CCC(CO[C@H]5C[C@H](Nc6cccc7c6C(=O)N(C6CCC(=O)NC6=O)C7=O)C5)CC4)CC3)cc2cc1NC(=O)c1cccc(C(C)(C)F)n1` (stereo partly shown) [I-140]: the DC50 lay within 50 to 100 nM.

For the molecule `O=C1CCC(N2C(=O)c3cccc(NCCC4CC5(CCN(C[C@H]6CC[C@H](n7cc8cc(NC(=O)c9cccc(C(F)(F)F)n9)c(OC(F)(F)F)cc8n7)CC6)CC5)C4)c3C2=O)C(=O)N1` (stereo partly shown) [I-141], the DC50 lay in the range of 50 to 100 nM. Regarding `COc1cc2nn([C@H]3CC[C@H](CN4CCC5(CC4)CC(CCNc4cccc6c4C(=O)N(C4CCC(=O)NC4=O)C6=O)C5)CC3)cc2cc1NC(=O)[C@H]1CCCCO1` (stereo partly shown) [I-142], the DC50 fell in the range of 500 to 1000 nM. With `COc1cc2nn([C@H]3CC[C@H](CN4CCC5(CC4)CC(CCNc4cccc6c4C(=O)N(C4CCC(=O)NC4=O)C6=O)C5)CC3)cc2cc1NC(=O)[C@@H]1CCCCN1` (stereo partly shown) [I-143], the DC50 was in the range of 500 to 1000 nM. As for `O=C1CCC(N2C(=O)c3cccc(NCCC4CC5(CCN(C[C@H]6CC[C@H](n7cc8cc(NC(=O)c9cccc(C(F)(F)F)n9)c(OC9CC9)cc8n7)CC6)CC5)C4)c3C2=O)C(=O)N1` (stereo partly shown) [I-159], the DC50 was less than 50 nM. The same measure, in the same setting: next, `CN(CCCO[C@H]1C[C@H](Nc2cccc3c2C(=O)N(C2CCC(=O)NC2=O)C3=O)C1)C[C@@]1(C)Cc2cc(NC(=O)c3cnn4cccnc34)c(N3CCOCC3)cc2O1` (stereo partly drawn) [I-161, N-[(2R)-2-[[3-[3-[[2-(2,6-dioxo-3-piperidyl)-1,3-dioxo-isoindolin-4-yl]amino]cyclobutoxy]propyl-methyl-amino]methyl]-2-methyl-6-morpholino-3H-benzofuran-5-yl]pyrazolo[1,5-a]pyrimidine-3-carboxamide]: 500 to 1000 nM.
